Experimental data published in patent US20150203517A1, “Prodrugs of Compounds that Enhance Antifungal Activity and Compositions of Said Prodrugs” (priority 2014, published 2015).
In brackets after ≈: the same amount, converted by molar mass. Counter-ions that a name gives are not always drawn. Like-named read-outs stand apart in the source and are kept apart here.

Assay: Saline solubility at 1.00 mg/mL and 0.50 mg/mL (with pH by indicator paper)
Assay type: physicochemical
Conditions: for pH at 1.00 mg/mL of MGCD290 in saline: final concentration of hydroxamate 1 1.00 mg/mL, pH indicator paper; for solubility at 1 h: saline or isotonic, thermodynamic from solid, centrifuged, soluble = no precipitate formed
Method: Assays were performed to determine the saline solubility at 1.00 and 0.50 mg/ml and the stability of certain of the prodrug compounds of Examples 1-111. The following procedures were used.
Step 1. Sample preparation. An amount of the compound sample was precisely weighed to correspond to around 5 mg of the hydroxamate of compound 1, taking into account the mass of the leaving group and the salt factor if applicable. The sample was placed in a 16×125 mm glass screw cap tube. Saline was added so that the final concentration of hydroxamate 1 was 1.00 mg/mL. The pH was measured with pH indicator paper. The tube was shaken for 1 hour on a Vortex apparatus then centrifuged at 3000 rpm (1800 rcf) for 5 minutes. If the compound example was soluble (no precipitate formed) the procedure continued to step 2. If a precipitate formed then the sample was diluted with saline so that the final concentration of the hydroxamate of compound 1 was 0.50 mg/mL, and the shaking and centrifuging steps were repeated. If the compound example was soluble (no precipitate formed) the procedure continued to step 2. If a precipitate formed the sample was discarded. Step 2. HPLC analysis. A 500 μL aliquot of a sample solution prepared according to Step 1 was taken up into a 1.5 mL injection vial to which was added 500 μL of saline. The vial was shaken on a Vortex apparatus, injected into the HPLC instrument (UV detection, zero time point) and the retention time and purity of the sample compound were determined. The injection was repeated after 6 hours and 24 hours, and a comparison was made of the retention time, peak areas and level of degradation (if any) using the GDADI50 method.

[1] = 0.50 mg/mL as hydroxamate 1, shaken 1 hour, read-out: Soluble at 0.5 mg/mL of MGCD290 (Y/N)
[2] = 1.00 mg/mL as hydroxamate 1, shaken 1 hour, read-out: Soluble at 1.00 mg/mL of MGCD290 (Y/N)

SMILES	pH at 1.00 mg/mL of MGCD290 in saline	solubility at 1 h [1]	solubility at 1 h [2]
O=C1COCCOCC(=O)N[C@H](C(=O)NCCC(=O)ONC(=O)Cc2ccc(CCCCc3ccccc3)cc2)CCCCN1 [Compound 83, (S)-6,14-Dioxo-N-(3-oxo-3-(2-(4-(4-phenylbutyl)phenyl)acetamidooxy)propyl)-1,4-dioxa-7,13-diazacyclopentadecane-8-carboxamide]	4.5-5	< 500 µg/mL	< 1000 µg/mL
COC(=O)NCC1(C(=O)ONC(=O)Cc2ccc(CCCCc3ccccc3)cc2)CC1 [Compound 53]	4.5-5	< 500 µg/mL	< 1000 µg/mL
O=C(Cc1ccc(CCCCc2ccccc2)cc1)NOC(=O)CCC1CCCC1 [Compound 51]	–	< 500 µg/mL	< 1000 µg/mL
COCCC(=O)ONC(=O)Cc1ccc(CCCCc2ccccc2)cc1 [Compound 52B]	–	< 500 µg/mL	< 1000 µg/mL
COCCOCCOCCOCCOCCOCC(=O)NCCC(=O)ONC(=O)Cc1ccc(CCCCc2ccccc2)cc1 [Compound 62]	4.5-5	< 500 µg/mL	< 1000 µg/mL
NCCCCCCCC(=O)ONC(=O)Cc1ccc(CCCCc2ccccc2)cc1 [Compound 7, N-(8-aminooctanoyloxy)-2-(4-(4-phenylbutyl)phenyl)acetamide hydrochloride]	–	< 500 µg/mL	< 1000 µg/mL
CC(C)OC(=O)ONC(=O)Cc1ccc(CCCCc2ccccc2)cc1 [Compound 76, N-(isopropoxycarbonyloxy)-2-(4-(4-phenylbutyl)phenyl)acetamide]	4.5-5	< 500 µg/mL	< 1000 µg/mL
CCOC(=O)CNC(=O)ONC(=O)Cc1ccc(CCCCc2ccccc2)cc1 [Compound 75]	4.5-5	< 500 µg/mL	< 1000 µg/mL
COCCOCCOCCOCCOCC(=O)N1CCN(C(=O)ONC(=O)Cc2ccc(CCCCc3ccccc3)cc2)CC1 [Compound 81]	4.5-5	–	> 1000 µg/mL

The next lines start with the values.

pH at 1.00 mg/mL of MGCD290 in saline	solubility at 1 h [1]	solubility at 1 h [2]	SMILES
5-5.5	–	> 1000 µg/mL	COCCOCCOCC(=O)N1CCN(C(=O)CCC(=O)ONC(=O)Cc2ccc(CCCCc3ccccc3)cc2)CC1 [Compound 124]
4.5-5	< 500 µg/mL	< 1000 µg/mL	COCCOCCOCC(=O)NCC[C@H](NC(=O)COCCOCCOC)C(=O)NCCC(=O)ONC(=O)Cc1ccc(CCCCc2ccccc2)cc1 [Compound 147]
4.5-5	500 to 1000 µg/mL (≈ 634 to 1270 µM)	< 1000 µg/mL	COCCOCCOCCNC(=O)CN(CC(=O)NCCOCCOCCOC)C(=O)CCC(=O)ONC(=O)Cc1ccc(CCCCc2ccccc2)cc1 [Compound 95, 4-oxo-N,N-bis (12-oxo-2,5,8-trioxa-11-azatridecan-13-yl)-4-(2-(4-(4-phenylbutyl)phenyl)acetamidooxy)butanamide]
4.5-5	–	> 1000 µg/mL	COCCOCCOCC(=O)NCCCC[C@H](NC(=O)COCCOCCOC)C(=O)NCC1(C(=O)ONC(=O)Cc2ccc(CCCCc3ccccc3)cc2)CC1 [Compound 162]
4.5-5	< 500 µg/mL	< 1000 µg/mL	COCCOCC(=O)NCC[C@H](NC(=O)COCCOC)C(=O)NCCC(=O)ONC(=O)Cc1ccc(CCCCc2ccccc2)cc1 [Compound 163]
4.5-5	–	> 1000 µg/mL	COCCOCCOCC(=O)NCCCC[C@H](NC(=O)COCCOCCOC)C(=O)N1CCC[C@H]1C(=O)ONC(=O)Cc1ccc(CCCCc2ccccc2)cc1 [Compound 107, N,N′-((S)-6-Oxo-6-((S)-2-((2-(4-(4-phenylbutyl)phenyl)acetamidooxy)carbonyl)pyrrolidin-1-yl)hexane-1,5-diyl)bis(2-(2-(2-methoxyethoxyl)ethoxy)acetamide)]
4.5-5	< 500 µg/mL	< 1000 µg/mL	COCCOCCOCC(=O)NCCC[C@H](NC(=O)COCCOCCOC)C(=O)NCCC(=O)ONC(=O)Cc1ccc(CCCCc2ccccc2)cc1 [Compound 159]
